Calls of active or inactive are those of the source. The calls are words filed in the database; no cut-off is given here.

We go through 2 molecules from ChEMBL document CHEMBL4602624, “Discovery of a potent and selective adenylyl cyclase type 8 agonist by docking-based virtual screening” (Bioorg Med Chem Lett, 2020).

Type in all cases: cell-based
The target of assay [1] is T1, Adenylate cyclase type 8 (Homo sapiens, UniProt P40145). In words: Agonist activity at recombinant human AC8 expressed in human HEK293 cells assessed as fold increase in cAMP level at 50 uM by LANCE Ultra cAMP Detection kit method relative to control. On the technique in general: cAMP levels reflect the balance of adenylyl cyclase and phosphodiesterase activity.
Assay [2] deals with T1, Adenylate cyclase type 8. Put plainly: Agonist activity at recombinant human AC8 expressed in human HEK293 cells assessed as fold increase in cAMP level by LANCE Ultra cAMP Detection kit method.
Assay [3] concerns the target Adenylate cyclase type 2 (Homo sapiens) (UniProt Q08462). Put plainly: Agonist activity at recombinant human AC2 expressed in human HEK293 cells assessed as increase in cAMP level at 50 uM by LANCE Ultra cAMP Detection kit method.
The target of assay [4] is Adenylate cyclase type 1 (Homo sapiens) (UniProt Q08828). Put plainly: Agonist activity at recombinant human AC1 expressed in human HEK293 cells assessed as increase in cAMP level at 50 uM by LANCE Ultra cAMP Detection kit.
The target of assay [5] is Adenylate cyclase type 5 (Homo sapiens) (UniProt O95622). In words: Agonist activity at recombinant human AC5 expressed in human HEK293 cells assessed as increase in cAMP level at 50 uM by LANCE Ultra cAMP Detection kit method.
Sequence of Adenylate cyclase type 5 (Homo sapiens) (O95622 whole entry, looked up): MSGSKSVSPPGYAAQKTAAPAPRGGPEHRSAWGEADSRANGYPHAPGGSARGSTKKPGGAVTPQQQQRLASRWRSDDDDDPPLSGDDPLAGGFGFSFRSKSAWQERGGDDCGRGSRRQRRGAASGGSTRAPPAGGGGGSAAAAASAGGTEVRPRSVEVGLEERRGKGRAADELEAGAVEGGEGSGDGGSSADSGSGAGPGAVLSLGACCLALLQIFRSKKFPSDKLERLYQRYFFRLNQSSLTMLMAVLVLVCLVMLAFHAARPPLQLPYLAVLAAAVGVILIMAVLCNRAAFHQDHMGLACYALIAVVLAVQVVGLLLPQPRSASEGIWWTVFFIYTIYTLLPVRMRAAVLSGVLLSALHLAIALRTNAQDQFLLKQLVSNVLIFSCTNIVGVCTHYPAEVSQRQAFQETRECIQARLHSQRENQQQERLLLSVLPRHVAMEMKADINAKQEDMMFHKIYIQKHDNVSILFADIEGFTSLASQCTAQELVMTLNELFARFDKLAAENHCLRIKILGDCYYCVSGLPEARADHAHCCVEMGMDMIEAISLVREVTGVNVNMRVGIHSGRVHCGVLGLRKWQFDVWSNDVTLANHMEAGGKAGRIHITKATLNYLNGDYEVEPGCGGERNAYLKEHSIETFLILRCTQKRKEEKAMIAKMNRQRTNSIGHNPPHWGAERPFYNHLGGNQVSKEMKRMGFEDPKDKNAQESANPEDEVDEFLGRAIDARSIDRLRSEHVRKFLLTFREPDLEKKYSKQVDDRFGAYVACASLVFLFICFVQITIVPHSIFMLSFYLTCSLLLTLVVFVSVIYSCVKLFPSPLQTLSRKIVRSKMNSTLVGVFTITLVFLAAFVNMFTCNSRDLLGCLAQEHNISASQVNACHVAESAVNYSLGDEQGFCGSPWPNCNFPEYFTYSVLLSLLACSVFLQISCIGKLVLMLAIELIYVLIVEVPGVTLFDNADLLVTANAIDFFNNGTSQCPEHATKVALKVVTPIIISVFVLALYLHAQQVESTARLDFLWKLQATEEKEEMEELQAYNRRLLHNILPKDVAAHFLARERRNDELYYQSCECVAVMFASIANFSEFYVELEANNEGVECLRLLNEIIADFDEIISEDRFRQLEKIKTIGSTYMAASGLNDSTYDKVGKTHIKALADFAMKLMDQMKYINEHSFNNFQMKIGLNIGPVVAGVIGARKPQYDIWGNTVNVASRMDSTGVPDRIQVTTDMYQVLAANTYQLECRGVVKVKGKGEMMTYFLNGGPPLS

T1 sequence (P40145 whole entry): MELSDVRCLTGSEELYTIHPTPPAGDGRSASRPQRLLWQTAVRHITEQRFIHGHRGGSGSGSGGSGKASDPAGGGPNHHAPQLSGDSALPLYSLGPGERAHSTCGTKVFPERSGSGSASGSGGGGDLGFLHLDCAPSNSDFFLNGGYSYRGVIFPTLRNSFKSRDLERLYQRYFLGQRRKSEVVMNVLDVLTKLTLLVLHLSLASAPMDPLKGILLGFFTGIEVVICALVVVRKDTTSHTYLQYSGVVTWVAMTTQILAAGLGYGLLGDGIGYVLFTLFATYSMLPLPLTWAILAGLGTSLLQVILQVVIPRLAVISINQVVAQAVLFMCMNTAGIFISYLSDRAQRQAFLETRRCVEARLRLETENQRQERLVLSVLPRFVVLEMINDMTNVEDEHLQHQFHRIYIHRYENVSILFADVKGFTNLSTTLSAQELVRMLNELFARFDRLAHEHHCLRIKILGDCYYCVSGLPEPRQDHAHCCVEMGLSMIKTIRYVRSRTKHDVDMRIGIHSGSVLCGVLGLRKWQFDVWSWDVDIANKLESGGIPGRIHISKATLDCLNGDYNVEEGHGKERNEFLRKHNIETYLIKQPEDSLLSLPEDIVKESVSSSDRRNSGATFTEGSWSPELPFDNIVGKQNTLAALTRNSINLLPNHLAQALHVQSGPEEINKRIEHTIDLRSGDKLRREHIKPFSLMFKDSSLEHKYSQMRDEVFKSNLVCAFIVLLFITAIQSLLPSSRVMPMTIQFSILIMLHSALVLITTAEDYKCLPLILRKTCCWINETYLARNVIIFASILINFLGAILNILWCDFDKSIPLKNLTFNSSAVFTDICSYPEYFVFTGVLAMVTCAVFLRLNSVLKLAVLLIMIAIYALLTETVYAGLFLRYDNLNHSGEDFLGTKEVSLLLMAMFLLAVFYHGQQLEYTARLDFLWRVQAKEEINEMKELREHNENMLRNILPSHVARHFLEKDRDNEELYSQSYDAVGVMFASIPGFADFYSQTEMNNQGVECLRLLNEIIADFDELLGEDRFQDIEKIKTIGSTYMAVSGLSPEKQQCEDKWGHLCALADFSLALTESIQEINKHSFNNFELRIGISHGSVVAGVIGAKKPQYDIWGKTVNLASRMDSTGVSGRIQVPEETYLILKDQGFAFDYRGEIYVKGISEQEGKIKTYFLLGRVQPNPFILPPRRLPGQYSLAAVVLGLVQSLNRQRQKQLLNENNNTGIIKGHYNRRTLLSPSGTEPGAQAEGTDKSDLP
Sequence of Adenylate cyclase type 2 (Homo sapiens) (Q08462 whole entry): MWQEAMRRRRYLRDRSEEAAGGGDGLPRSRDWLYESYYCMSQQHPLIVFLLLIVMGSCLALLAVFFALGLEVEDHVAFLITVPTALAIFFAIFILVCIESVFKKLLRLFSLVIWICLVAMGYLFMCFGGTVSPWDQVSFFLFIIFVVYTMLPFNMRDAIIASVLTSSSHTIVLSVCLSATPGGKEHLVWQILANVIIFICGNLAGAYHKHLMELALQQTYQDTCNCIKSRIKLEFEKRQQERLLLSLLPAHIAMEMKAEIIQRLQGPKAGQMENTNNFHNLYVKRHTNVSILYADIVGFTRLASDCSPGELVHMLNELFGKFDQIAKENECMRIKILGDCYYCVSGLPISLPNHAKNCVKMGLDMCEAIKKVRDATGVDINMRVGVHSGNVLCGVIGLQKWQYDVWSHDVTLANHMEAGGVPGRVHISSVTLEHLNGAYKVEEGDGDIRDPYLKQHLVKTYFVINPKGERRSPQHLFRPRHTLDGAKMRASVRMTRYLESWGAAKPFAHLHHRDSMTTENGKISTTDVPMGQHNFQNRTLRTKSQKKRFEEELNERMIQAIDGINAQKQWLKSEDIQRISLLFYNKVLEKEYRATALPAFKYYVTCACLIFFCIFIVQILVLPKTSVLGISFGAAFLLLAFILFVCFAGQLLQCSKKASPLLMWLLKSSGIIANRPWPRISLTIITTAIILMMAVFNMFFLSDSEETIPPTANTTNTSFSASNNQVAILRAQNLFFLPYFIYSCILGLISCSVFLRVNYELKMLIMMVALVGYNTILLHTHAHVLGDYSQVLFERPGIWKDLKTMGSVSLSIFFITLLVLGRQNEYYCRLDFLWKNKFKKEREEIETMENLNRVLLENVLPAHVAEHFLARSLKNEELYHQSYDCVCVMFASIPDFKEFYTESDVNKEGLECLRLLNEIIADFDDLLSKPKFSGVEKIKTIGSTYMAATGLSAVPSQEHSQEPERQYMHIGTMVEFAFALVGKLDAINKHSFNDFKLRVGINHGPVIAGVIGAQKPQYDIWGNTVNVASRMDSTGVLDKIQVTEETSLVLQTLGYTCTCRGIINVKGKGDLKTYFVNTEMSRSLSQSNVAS
Sequence of Adenylate cyclase type 1 (Homo sapiens) (Q08828 whole entry, looked up): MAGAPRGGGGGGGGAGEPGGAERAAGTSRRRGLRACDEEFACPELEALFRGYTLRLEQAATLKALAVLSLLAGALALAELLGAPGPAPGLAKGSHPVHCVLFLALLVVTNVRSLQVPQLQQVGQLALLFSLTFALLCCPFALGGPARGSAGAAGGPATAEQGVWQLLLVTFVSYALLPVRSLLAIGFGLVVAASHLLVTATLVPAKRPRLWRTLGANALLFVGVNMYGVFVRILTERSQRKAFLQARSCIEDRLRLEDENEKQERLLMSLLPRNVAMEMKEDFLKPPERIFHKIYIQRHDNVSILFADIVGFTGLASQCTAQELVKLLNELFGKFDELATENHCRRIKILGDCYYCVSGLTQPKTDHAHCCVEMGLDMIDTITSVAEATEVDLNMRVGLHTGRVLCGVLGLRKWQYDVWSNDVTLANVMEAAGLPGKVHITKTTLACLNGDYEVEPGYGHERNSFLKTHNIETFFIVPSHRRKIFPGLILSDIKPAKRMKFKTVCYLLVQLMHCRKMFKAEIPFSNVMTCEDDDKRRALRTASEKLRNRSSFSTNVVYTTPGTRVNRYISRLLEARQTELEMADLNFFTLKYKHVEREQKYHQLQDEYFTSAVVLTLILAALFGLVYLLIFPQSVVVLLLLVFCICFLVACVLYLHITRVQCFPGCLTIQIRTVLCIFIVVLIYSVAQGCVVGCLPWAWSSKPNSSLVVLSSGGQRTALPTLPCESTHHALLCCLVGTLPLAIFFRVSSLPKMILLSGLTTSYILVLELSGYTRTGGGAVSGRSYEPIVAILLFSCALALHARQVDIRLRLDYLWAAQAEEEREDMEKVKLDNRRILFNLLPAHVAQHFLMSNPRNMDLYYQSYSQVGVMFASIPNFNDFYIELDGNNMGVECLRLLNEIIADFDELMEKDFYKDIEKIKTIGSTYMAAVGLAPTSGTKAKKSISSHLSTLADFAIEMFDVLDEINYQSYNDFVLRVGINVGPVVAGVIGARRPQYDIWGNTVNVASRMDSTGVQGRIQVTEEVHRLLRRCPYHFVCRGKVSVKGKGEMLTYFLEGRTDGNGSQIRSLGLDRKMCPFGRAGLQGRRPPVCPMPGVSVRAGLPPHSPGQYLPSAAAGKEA

`C=C[C@@]1(C)CC(=O)[C@]2(O)[C@@]3(C)[C@@H](O)CCC(C)(C)[C@@H]3[C@H](O)[C@H](OC(C)=O)[C@@]2(C)O1` [COLFORSIN]: on Adenylate cyclase type 8 [1], the fold change (FC) amounted to 35. For the same molecule, the concentration for a half-maximal effect (EC50) at Adenylate cyclase type 8 [2] is 93.7 nM.

Consider `CCOC(=O)C1(Cc2ccc(Cl)cc2Cl)C(=O)Nc2ccccc21` (stereo not drawn), for which the outcome in assay [3], in assay [4] and in assay [5] was inactive. Besides, the fold change (FC) on Adenylate cyclase type 8 [1] was 33. The Activity entry at Adenylate cyclase type 8 [2] was “Dose-dependent effect”. Besides, the EC50 at Adenylate cyclase type 8 [2] was determined as 105 nM.

For orientation: EC50 means the midpoint of the concentration-response curve.
